Results on 13 compounds are retold here after patent publication US5482967A, “Condensed heterocyclic compounds, their production and use” (Takeda Chemical Industries, Ltd., priority 1992, dated 1996).

Sequence of substance P receptor (P25103 whole entry): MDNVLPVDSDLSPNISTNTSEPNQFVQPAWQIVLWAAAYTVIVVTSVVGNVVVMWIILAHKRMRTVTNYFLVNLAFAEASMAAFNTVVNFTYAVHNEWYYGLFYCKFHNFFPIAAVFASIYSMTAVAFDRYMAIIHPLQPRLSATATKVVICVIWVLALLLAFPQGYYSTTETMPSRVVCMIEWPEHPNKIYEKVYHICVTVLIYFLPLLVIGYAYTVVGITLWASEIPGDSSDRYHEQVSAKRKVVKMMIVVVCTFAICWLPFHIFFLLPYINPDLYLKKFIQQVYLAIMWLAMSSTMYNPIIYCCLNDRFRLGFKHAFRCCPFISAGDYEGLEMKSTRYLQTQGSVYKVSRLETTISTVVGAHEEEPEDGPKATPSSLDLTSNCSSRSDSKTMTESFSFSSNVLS

The assay deals with substance P receptor (Homo sapiens, UniProt P25103). As to the kind of experiment: Radioligand receptor binding inhibitory assay using receptor from human lymphoblast cells (IM-9), 125I-BHSP. The following applies: IM-9 receptor, 25° C., 30 minutes. The protocol:
The method of A. Margaret et al. [Molecular Pharmacology 42, 458 (1992)] was modified and used. The receptor was prepared from human lymphoblast cells (IM-9). IM-9 cells were grown in 175 cm^2 tissue culture flasks (100 ml×10) at a density approximately 2×10^5 /ml of RPMI 1640 with L-glutamine, 10% (V/V) heat inactivated fetal calf serum, penicillin (100 u/ml), and streptomycin (100 μg/ml) at 37° C. in 5% CO2 /95% air for 3 days. IM-9 cells were obtained by centrifugation at 500×g for 5 minutes at 5° C. The pellet obtained was washed once with phosphate buffer (Flow Laboratories, CAT No. 28-103-05), homogenized using Polytron homogenizer (Kinematika, Germany) in 30 ml of 50 mM Tris-HCl buffer containing 120 mM NaCl, 5 mM KCl, 2 μg/ml phenylmethyl sulfonyl fluoride, and 1 mM ethylenediamine tetra-acetic acid and then centrifuged at 40,000×g for 20 minutes. The residue was washed twice with 30 ml of buffer described above, and preserved frozen (-80° C.).
The above specimen was suspended in a reaction buffer (50 mM Tris-HCl buffer (pH 7.4), 0.02% bovine serum albumin, 1 mM phenylmethylsulfonyl fluoride, 2 μg/ml chymostatin, 40 μg/ml bacitracin, 3 mM manganese chloride) at a protein concentration of 1.5 mg/ml and a 100 μl portion of the suspension was used in the reaction. After addition of the sample and 125I-BHSP (0.46 KBq), the reaction was conducted in 0.2 ml of reaction buffer at 25° C. for 30 minutes. The amount of nonspecific binding was determined by adding substance P at a final concentration of 2×10^-6 M. After the reaction, using a cell harvester (290PHD, Cambridge Technology, Inc., England), rapid filtration was carried out through a glass filter (GF/B, Whatman, U.S.A.) to stop the reaction. After washing three times with 250 μl of 50 mM Tris-HCl buffer (pH 7.4) containing 0.02% bovine serum albumin, the radioactivity remaining on the filter was measured with a gamma counter. Before use, the filter was immersed in 0.1% polyethyleneimine for 24 hours and air-dried.
Take `CN(Cc1cc(C(F)(F)F)cc(C(F)(F)F)c1)C(=O)c1ncc2ccccc2c1-c1ccccc1` [Example 276, N-[3,5-Bis(trifluoromethyl)benzyl]-N-methyl-4-phenyl-3-isoquinolinecarboxamide]: the IC50 was determined as 3 nM.

Consider `Cc1ccc(CNC(=O)c2c(-c3ccccc3)c3ccccc3c(=O)n2C)cc1` [Example 170, 1,2-Dihydro-2-methyl-N-(4-methylbenzyl)-1-oxo-4-phenyl-3isoquinolinecarboxamide], for which the IC50 is 19 nM.

As for `Cc1cc2c(-c3ccccc3)c(C(=O)NCc3cc(C(F)(F)F)cc(C(F)(F)F)c3)n(CC(N)=O)c(=O)c2cc1C` [Example 225, N-[3,5-Bis(trifluoromethyl)benzyl]-2-carbamoylmethyl-1,2-dihydro-6,7-dimethyl-1-oxo-4-phenyl-3-isoquinolinecarboxamide], the IC50 came out at 94 nM.

In turn, `Cc1ccccc1-c1c(C[S+]([O-])Cc2cc(C(F)(F)F)cc(C(F)(F)F)c2)n(C)c(=O)c2ccccc12` (stereo not shown) [Example 218, 3,5-Bis(trifluoromethyl)benzyl 1,2-dihydro-2-methyl-4-(2-methylphenyl)-1-oxo-3-isoquinolinemethyl sulfoxide] came in with an IC50 of 23 nM.

For the compound `CCN(Cc1ccccc1OC)C(=O)c1c(-c2ccccc2C)c2ccccc2c(=O)n1C` [Example 107, N-Ethyl-1,2-dihydro-N-(2-methoxybenzyl)-2-methyl-4-(2-methylphenyl)-1-oxo-3-isoquinolinecarboxamide], the IC50 turned out to be 34 nM.

The compound `Cc1cc(F)ccc1-c1c(C(=O)N(C)Cc2cc(C(F)(F)F)cc(C(F)(F)F)c2)n(C)c(=O)c2ccccc12` [Example 176, N-[3,5-Bis(trifluoromethyl)benzyl]-4-(4-fluoro-2-methylphenyl)-1,2-dihydro-N,2-dimethyl-1-oxo-3-isoquinolinecarboxamide] showed an IC50 of 0.7 nM.

Regarding `CN(Cc1cc(C(F)(F)F)cc(C(F)(F)F)c1)C(=O)c1c(-c2ccccc2)c2cc(Cl)ccc2c(=O)n1C` [Example 174, N-[3,5-Bis(trifluoromethyl)benzyl]-6-chloro-1,2-dihydro-N,2-dimethyl-1-oxo-4-phenyl-3-isoquinolinecarboxamide], the IC50 turned out to be 3.4 nM.

`Cc1cc2c(-c3ccccc3)c(C(=O)NCc3ccccc3Cl)n(C)c(=O)c2cc1C` [Example 131, N-(2-Chlorobenzyl)-1,2-dihydro-2,6,7-trimethyl-1-oxo-4-phenyl-3-isoquinolinecarboxamide] displayed an IC50 of 86 nM.

Turning to `Cc1ccc(CNC(=O)c2c(-c3ccccc3)c3cc(C)c(C)cc3c(=O)n2C)cc1` [Example 127, 1,2-Dihydro-2,6,7-trimethyl-N-(4-methylbenzyl)-1-oxo-4-phenyl-3-isoquinolinecarboxamide], the IC50 was 8.8 nM.

In turn, `CCOC(=O)CCn1c(C(=O)N(C)Cc2cc(C(F)(F)F)cc(C(F)(F)F)c2)c(-c2ccccc2)c2ccccc2c1=O` [Example 180, N-[3,5-Bis(trifluoromethyl)benzyl]-2-(2-ethoxycarbonylethyl)-1,2-dihydro-N-methyl-1-oxo-4-phenyl-3-isoquinolinecarboxamide] gave an IC50 of 9.1 nM.

Regarding `CN(Cc1cc(C(F)(F)F)cc(C(F)(F)F)c1)C(=O)c1c(-c2ccccc2Cl)c2ccccc2n(C)c1=O` [Example 262, N-[3,5-Bis(trifluoromethyl)benzyl]-4-(2-chlorophenyl)-1,2-dihydro-N,1-dimethyl-2-oxo-3-quinolinecarboxamide], the IC50 came to 2 nM.

In turn, `CCOC(=O)CCn1c(C(=O)NCc2cc(C(F)(F)F)cc(C(F)(F)F)c2)c(-c2ccccc2)c2ccccc2c1=O` [Example 179, N-[3,5-Bis(trifluoromethyl)benzyl]-2-(2-ethoxycarbonylethyl)-1,2-dihydro-1-oxo-4-phenyl-3-isoquinolinecarboxamide] showed an IC50 of 80 nM.

Consider `Cc1ccccc1-c1c(COCc2cc(C(F)(F)F)cc(C(F)(F)F)c2)n(C)c(=O)c2ccccc12` [Example 212, 3,5-Bis(trifluoromethyl)benzyl 1,2-dihydro-2-methyl-4-(2-methylphenyl)-1-oxo-3-isoquinoline methyl ether], for which the IC50 is 30 nM.

Usually IC50 stands for the concentration that inhibits the measured activity by half. A lower IC50 goes with greater potency.
